# In patent US20210307272A1, “USE OF PLANT GROWTH REGULATORS TO ENHANCE ALGAE GROWTH FOR THE PRODUCTION OF ADDED VALUE PRODUCTS” (priority 2009, published 2021):
# How the values were obtained:
# Format in all cases: cell-based
# [1] = tested on: Scenedesmus obliquus; experiment: Effect of hormone concentrations on growth rate of Scenedesmus obliquus, heterotrophic; conditions: 48 hours, control 0.35
# [2] = tested on: Scenedesmus obliquus; experiment: Effect of hormone concentrations on growth rate of Scenedesmus obliquus, photoheterotrophic; conditions: 48 hours, control 0.41
# [3] = tested on: Chlorella protothecoides; experiment: Effect of hormone concentrations on growth rate of Chlorella protothecoides, heterotrophic; conditions: 48 hours, control 1.54
# [4] = tested on: Auxenochlorella protothecoides; experiment: Auxenochlorella protothecoides culture with growth regulator, dry weight and oil after seven days; conditions: 2 mg/L
# Method: Auxenochlorella protothecoides was grown in Bristol's medium (see above) amended with 0.1% yeast extract (see above) and 0.5% glucose (control cells). Two other groups were cultured in the same medium with either indole acetic acid (2 mg/L, Cat. No. 12886, Sigma-Aldrich Canada Ltd.) or giberellic acid (2 mg/L, Cat. No. G7645, Sigma-Aldrich Canada Ltd.) added. Dry weights were determined and compared between the culture groups after seven days.
# [5] = tested on: Chlorella protothecoides; experiment: Effect of hormone concentrations on growth rate of Chlorella protothecoides, photoheterotrophic; conditions: 48 hours, control 1.05
# Method: The influence of light exposure during Scenedesmus obliquus and Chlorella protothecoides growth was assessed. The growth rates of both algae were higher in photoheterotrophic growth conditions. The Scenedesmus obliquus growth rate was about 86.7% higher under photoheterotrophic growth. Meanwhile, the Chlorella protothecoides growth rate increased 39.07% when the growth was conducted under photoheterotrophic growth.
SMILES,growth rate ([1]; 0.01 ng),growth rate ([1]; 0.1 ng),growth rate ([1]; 1 ng),growth rate ([1]; 10 ng),growth rate ([1]; 100 ng),growth rate ([2]; 0.01 ng),growth rate ([2]; 0.1 ng),growth rate ([2]; 1 ng),growth rate ([2]; 10 ng),growth rate ([2]; 100 ng),growth rate ([3]; 0.01 ng),growth rate ([3]; 0.1 ng),growth rate ([3]; 1 ng),growth rate ([3]; 10 ng),growth rate ([3]; 100 ng),growth rate ([5]; 0.01 ng),growth rate ([5]; 0.1 ng),growth rate ([5]; 1 ng),growth rate ([5]; 10 ng),growth rate ([5]; 100 ng),further results
C=C1C[C@]23C[C@@]1(O)CC[C@H]2[C@@]12C=C[C@H](O)[C@@](C)(C(=O)O1)[C@H]2[C@@H]3C(=O)O [Gibberellic acid],0.44,0.50,0.43,0.36,0.42,0.59,0.47,0.56,0.56,0.51,1.52,1.52,1.46,1.52,1.46,1.06,1.02,1.00,1.09,1.10,increase of dry cell mass relative to the control [4]: 20%
O=C(O)Cc1cccc2ccccc12 [1-Naphthaleneacetic acid],0.26,0.28,0.33,0.28,0.39,0.84,0.85,0.81,0.80,0.73,1.66,1.54,1.62,1.57,1.62,1.00,1.02,1.05,1.07,1.16,
"c1coc(CNc2ncnc3[nH]cnc23)c1 [Kinetin, kinetin]",0.28,0.26,0.36,0.31,0.28,0.57,0.73,0.92,0.37,0.36,1.60,1.50,1.44,1.60,1.58,1.08,1.10,1.02,1.18,1.19,
"O=C(O)COc1ccc(Cl)cc1Cl [2,4-Dichlorophenoxyacetic, 2,4-dichlorophenoxyacetic acid]",0.28,0.23,0.31,0.24,0.23,0.42,0.44,0.47,0.44,0.33,1.40,1.53,1.43,1.31,1.50,1.09,1.08,1.01,1.08,1.03,
"O=C(O)Cc1c[nH]c2ccccc12 [Indole-3-acetic acid, indole-3-acetic acid]",0.23,0.36,0.42,0.47,0.41,0.42,0.47,0.49,0.49,0.62,1.62,1.61,1.49,1.60,1.60,1.06,1.05,0.97,1.13,1.02,increase of dry cell mass relative to the control [4]: 50%; increase of oil production [4]: 15%
"c1ccc(CNc2ncnc3nc[nH]c23)cc1 [6-Benzylaminopurine, 6-benzylaminopurine]",0.28,0.32,0.39,0.36,0.33,0.46,0.37,0.47,0.47,0.52,1.48,1.54,1.50,1.52,1.46,1.00,1.12,1.07,1.04,1.08,
